The results in this text go back to patent US20240301319A1, “PERFUMING COMPOSITIONS” (FIRMNICH SA, priority 2017, published 2024).

Series [1] is described as follows: Volatility of perfuming compounds (Tables 4 to 10), with top/middle/bottom note type. The class given is physicochemical. Put shortly:
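Volatility is expressed in μg/l in air. Top notes are 70,000 to 100 μg/l, middle notes 99 to 50 μg/l, and bottom notes 49 to 0.1 μg/l. Compounds are grouped by olfactive family: watery, green, fruity, citrus, sweet, gourmand and woody.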

Series [2] is described as follows: Odor threshold and odor value of perfuming compounds (Tables 4 to 10).
Where [3] appears, read: Table 8, perfuming compounds having a sweet note.
Where [4] appears, read: Table 8, perfuming compounds having a sweet note, note type by volatility.
[5] abbreviates: Table 10, perfuming compounds having a woody note, note type by volatility.
Where [6] appears, read: Table 6, perfuming compounds having a fruity note.
The mark [7] stands for this setting: Table 6, perfuming compounds having a fruity note, note type by volatility.
[8] abbreviates: note type (Top/Middle/Bottom) by volatility, perfuming compounds having a green note.
[9] abbreviates: perfuming compounds having a green note.
Setting [10] is: Table 9, perfuming compounds having a gourmand note, note type by volatility.

With `CC(=O)CCC1=C(C)CCCC1(C)C`, the Volatility in series [1] (setting [3]) is listed as 63.61 μg/l air; in series [1] (Table 10, woody note) it was 63.61 μg/l air. Further, the Type entry in series [1] (setting [4]) and in series [1] (setting [5]) was “Middle” each time. For the same compound, the “Odor Threshold” value in series [2] (setting [3]) was 8.51E−03 μg/l air; in series [2] (Table 10, woody note), 8.51E−03 μg/l air. Moreover, the “Odor Value” in series [2] (setting [3]) was 7.48E+03.

The compound `C=CCOC(=O)COC1CCCCC1` [ALLYL (CYCLOHEXYLOXY)ACETATE] had a Volatility in series [1] (setting [6]) of 47.01 μg/l air. Also, the Type entry in series [1] (setting [7]) and in series [1] (setting [8]) was “Bottom” in each case. In series [1] (setting [9]), the “Volatility (μg/l air)” value stood at 47.01 μg/l air. Besides, the “Odor Threshold” value in series [2] (setting [6]) turned out to be 4.66E−05 μg/l air. In addition, in series [2] (setting [6]), the “Odor Value” stood at 1.01E+06. For the same compound, the “Odor Threshold (μg/l air)” value in series [2] (setting [9]) was determined as 4.66E−05 μg/l air.

In the case of `C=CCOC(=O)CCC1CCCCC1` [ALLYL 3-CYCLOHEXYLPROPANOATE], the Volatility in series [1] (setting [6]) was determined as 75.80 μg/l air; in series [1] (setting [3]), 75.80 μg/l air; in series [1] (Table 9, gourmand note), 75.80 μg/l air. Moreover, the Type result in series [1] (setting [7]), in series [1] (setting [4]), in series [1] (setting [10]) and in series [1] (setting [8]) was “Middle” throughout. In addition, in series [1] (setting [9]), the “Volatility (μg/l air)” value is 75.80 μg/l air. Also, the “Odor Threshold” value in series [2] (setting [6]) is on record as 7.96E−03 μg/l air; in series [2] (setting [3]) it was 7.96E−03 μg/l air; in series [2] (Table 9, gourmand note), 7.96E−03 μg/l air. Besides, the “Odor Value” in series [2] (setting [6]) and in series [2] (setting [3]) was 9.53E+03 each time. The “Odor Threshold (μg/l air)” value in series [2] (setting [9]) came to 7.96E−03 μg/l air.

`CC1=CCC(/C=C/C(C)C(C)O)C1(C)C` (centres unmarked): the Type entry in series [1] (setting [5]) was “Bottom”. The same compound displayed a Volatility in series [1] (Table 10, woody note) of 20.41 μg/l air. The “Odor Threshold” value in series [2] (Table 10, woody note) was 9.56E−05 μg/l air.

Regarding `C=CCSSCC=C` [DIALLYL DISULFIDE], the Volatility in series [1] (setting [3]) is recorded as 5487.52 μg/l air; in series [1] (Table 9, gourmand note) it was 5487.52 μg/l air. In addition, the Type result in series [1] (setting [4]) and in series [1] (setting [10]) was “Top” in each case. For the same compound, the “Odor Threshold” value is 3.98E−05 μg/l air in series [2] (setting [3]) and 3.98E−05 μg/l air in series [2] (Table 9, gourmand note). In addition, in series [2] (setting [3]), the “Odor Value” is reported as 1.38E+08.

Take `CCCCCCC=O` [HEPTANAL]: the Type entry in series [1] (setting [8]) was “Top”. Moreover, the “Volatility (μg/l air)” value in series [1] (setting [9]) worked out at 22184.00 μg/l air. The “Odor Threshold (μg/l air)” value in series [2] (setting [9]) turned out to be 2.03E−03 μg/l air.

As to `CC(C)=CCCC(C)C=O` (racemic), the “Volatility (μg/l air)” value in series [1] (Table 4, watery note) stood at 1889.68 μg/l air. In addition, the Type entry in series [1] (Table 4, watery note, top, middle or bottom note) is recorded as “TOP (perfuming compounds having a volatility ranging from 70,000 to 100 μg/l in air are referred to as “top notes”)”; in series [1] (setting [7]), “TOP (perfuming compounds having a volatility ranging from 70,000 to 100 μg/l in air are referred to as “top notes”)”. In series [1] (setting [6]), this compound displayed a Volatility of 1889.68 μg/l air. The “Odor Threshold (μg/l air)” value in series [2] (Table 4, watery note) was 2.11E−04 μg/l air. In addition, in series [2] (Table 4, watery note, equals volatility divided by odor threshold), the “Odor Value” is 8.96E+06.

On to `COC(=O)Cc1ccccc1` [METHYL PHENYLACETATE], for which the Volatility in series [1] (setting [6]) was found to be 555.30 μg/l air; in series [1] (setting [3]), 555.30 μg/l air; in series [1] (Table 9, gourmand note) it was 555.30 μg/l air. Further, the Type result in series [1] (setting [7]) is recorded as “TOP (perfuming compounds having a volatility ranging from 70,000 to 100 μg/l in air are referred to as “top notes”)”; in series [1] (setting [4]), “Top”; in series [1] (setting [10]) it was “Top”. The “Odor Threshold” value in series [2] (setting [3]) turned out to be 3.21E−04 μg/l air; in series [2] (Table 9, gourmand note), 3.21E−04 μg/l air. The “Odor Value” in series [2] (setting [3]) turned out to be 1.73E+06.

Turning to `CC1CCCC2(C)CCCCC12O` (racemic), in series [1] (setting [8]), the Type result is listed as “Top”. The “Volatility (μg/l air)” value in series [1] (setting [9]) came to 330.48 μg/l air. Further, the “Odor Threshold (μg/l air)” value in series [2] (setting [9]) is 5.32E−06 μg/l air.
